Data on one compound can be found in patent publication US20220288115A1, “ORAL DISODIUM PYR[…] USE IN REDUCING CALCIFICATION” (priority 2019, published 2022).

For series [1] the following is noted: human subjects. From the text: FIG. 1: Plasma bioavailability of PPi after oral disodium PPi and after oral tetrasodium PPI. Results of different subjects (#) are shown, as well as AUC and AUC/mg PPi.
In this experiment PPI bioavailability was compared between tetrasodium PPi and disodium PPi in different human subjects (as indicated by # in FIG. 1).

For series [2] the following is noted: single oral dose, PXE patient, fasting baseline 0.7 μmol/l (FIG. 2). From the text: Legend indicates the dose (per kg of body weight) and time of PPi consumption.
For series [3] the following is noted: three months after the operation; 44 mg/kg per oral once daily.
Experimental: As PXE patients have an increased risk of spontaneous gastrointestinal bleeding, aspirin medication was not used preoperatively. […] With the present therapy the patients absorbs extra 0.8 mg sodium and is informed to decrease daily salt intake.
Aspirin and PPi therapy were continued unaltered.

For the compound `O=P([O-])([O-])OP(=O)(O)O.[Na+].[Na+]` [disodium pyrophosphate], the “re-stenosis on computed tomography angiography (CTA)” value (one year postoperatively) was “without signs of re-stenosis”. For the same compound, the “Walking Impairment Questionnaire (WIQ) score” value (one year postoperatively, baseline 0.19, 44 mg/kg per oral once daily) was determined as 0.89. In addition, the “re-stenosis in the operated area on MRA” value (three months after the operation) is reported as “no re-stenosis”. Besides, the “PPi bioavailability in plasma after oral uptake” value in series [1] (compared with oral tetrasodium PPi (FIG. 1)) was “much better bioavailable”. Moreover, the “area under the curve (AUC) and calculated AUC/mg PPi of plasma PPi” value in series [1] (oral, compared with tetrasodium PPi) was “higher”. The “time plasma pyrophosphate stayed in the normal fasting range of healthy controls (0.8-1.6 μmol/l)” value in series [2] amounted to 180 min. In addition, in series [3], the safety laboratory tests entry was “normal”.
